Assay results published in patent publication US6395760B1, “Pesticidal 1-arylpyrazoles” (Rhone-Poulenc Inc., priority 1997, dated 2002).

Tests used:
Set-up in all cases: key: ‘X’ means highly active; ‘+’ means moderately active; ‘−’ means low activity
[1] = system: A. gossypii; assay: Foliar application (contact test) with aphids; format: in vivo, Aphis gossypii; conditions: 100 ppm formulation sprayed to runoff on aphid-infested cotton plants, dead aphids counted three days after treatment
Excerpt: Foliar Application (Contact Test) with Aphids Aphid-infested cotton plants were placed on a revolving turntable, and sprayed to runoff with a 100 ppm formulation of the selected compound of formula (I). The treated, A. gossypii-infested plants were held for three days after treatment, after which the dead aphids were counted.

[2] = system: Musca domestica; assay: Housefly bait/contact test; format: in vivo; conditions: 50 ppm in sugar water bait solution, adult houseflies, mortality after 24 hours
Excerpt: The Housefly Bait/Contact Test About 25 four to six-day-old adult houseflies were anesthetized and placed in a cage with a sugar water bait solution containing the compound. The concentration of the selected compound of formula (I) in the bait solution was 50 ppm.

[3] = system: Aphis gossypii; assay: Soil drench test (systemic activity), aphids on cotton plants; format: in vivo; conditions: 10.0 ppm soil concentration by weight, aphid counts at 5 DAT vs untreated control
Excerpt: (§1) The Soil Drench Test (Systemic Activity) Cotton and sorghum plants were established in pots. One day prior to treatment, each pot was infested with about 25 aphids of a mixed population. Cotton plants were infested with aphids and sorghum plants were infested with the greenbug. The selected compound of formula (I) was applied to the soil surface in a dilution that delivered the equivalent of 10.0 ppm soil concentration by weight. Aphid counts were obtained at 5 DAT (=days after treatment). The number of aphids on the treated plants was compared to the number of those on the untreated control plants.

[4] = system: Schizaphis graminum; assay: Soil drench test (systemic activity), greenbug on sorghum plants; format: in vivo; conditions: 10.0 ppm soil concentration by weight, counts at 5 DAT vs untreated control
Excerpt: as §1

Structure (SMILES) | Foliar activity on aphids [1] | Activity on house flies by contact [2] | Systemic activity on aphids [3] | Systemic activity on greenbugs [4]
C[S+]([O-])c1c(C2(C)SCC[S+]2[O-])nn(-c2c(Cl)cc(C(F)(F)F)cc2Cl)c1N (stereo not drawn) [Compound 20] | − | X | − | −
CC1(c2nn(-c3c(Cl)cc(C(F)(F)F)cc3Cl)c(N)c2S(C)(=O)=O)SCC[S+]1[O-] (stereo not drawn) [Compound 21] | − | X | − | −
CC1(c2nn(-c3c(Cl)cc(C(F)(F)F)cc3Cl)c(N)c2S(C)(=O)=O)[S+]([O-])CC[S+]1[O-] (stereo not drawn) [Compound 22] | − | − | X | +
C[S+]([O-])c1c(C2(C)OCC(CO)O2)nn(-c2c(Cl)cc(C(F)(F)F)cc2Cl)c1N (stereo not drawn) [Compound 26] | − | X | − | +
CSCC1COC(C)(c2nn(-c3c(Cl)cc(C(F)(F)F)cc3Cl)c(N)c2SC)O1 (stereo not drawn) [Compound 27] | − | X | X | +
CSc1c(C2(C)OCC(C[S+](C)[O-])O2)nn(-c2c(Cl)cc(C(F)(F)F)cc2Cl)c1N (stereo not drawn) [Compound 28] | X | X | X | −
C[S+]([O-])CC1COC(C)(c2nn(-c3c(Cl)cc(C(F)(F)F)cc3Cl)c(N)c2[S+](C)[O-])O1 (stereo not drawn) [Compound 29] | X | X | X | −
CCNc1c(S(C)(=O)=O)c(C2(C)OCCO2)nn1-c1c(Cl)cc(C(F)(F)F)cc1Cl [Compound 34] | X | X | X | X
CNc1c(S(C)(=O)=O)c(C2(C)OCCO2)nn1-c1c(Cl)cc(C(F)(F)F)cc1Cl [Compound 35] | X | X | X | X
